Measurements from PubChem BioAssay AID1259407 (Chemical Carcinogenesis Research Information System (CCRIS), 2018).
The source made the active and inactive calls. No rule for the calls is given here.

System: CCRIS mutagenicity, Ames/micronucleus/aberration tests
Test: CCRIS mutagenicity studies
[1] = Test System: AMES SALMONELLA TYPHIMURIUM, Strain/Indicator: TA98, Metabolic Activation: HAMSTER, LIVER, S-9, AROCLOR 1254 (30%), Method: PREINCUBATION
[2] = Test System: AMES SALMONELLA TYPHIMURIUM, Strain/Indicator: TA98, Metabolic Activation: NONE, Method: PREINCUBATION
[3] = Test System: AMES SALMONELLA TYPHIMURIUM, Strain/Indicator: TA98, Metabolic Activation: RAT, LIVER, S-9, AROCLOR 1254 (30%), Method: PREINCUBATION
[4] = Test System: AMES SALMONELLA TYPHIMURIUM, Strain/Indicator: TA100, Metabolic Activation: HAMSTER, LIVER, S-9, AROCLOR 1254 (30%), Method: PREINCUBATION
[5] = Test System: AMES SALMONELLA TYPHIMURIUM, Strain/Indicator: TA100, Metabolic Activation: NONE, Method: PREINCUBATION
[6] = Test System: AMES SALMONELLA TYPHIMURIUM, Strain/Indicator: TA100, Metabolic Activation: RAT, LIVER, S-9, AROCLOR 1254 (30%), Method: PREINCUBATION
[7] = Test System: AMES SALMONELLA TYPHIMURIUM, Strain/Indicator: TA98, Metabolic Activation: NONE, Method: STANDARD PLATE

COc1ccccc1O
mutagenic call (End Point: IN VITRO CHROMOSOMAL ABERRATIONS, Test System: SYRIAN HAMSTER EMBRYO (SHE) CELLS, Metabolic Activation: NONE): active; positive (structural changes)
mutagenic call (Test System: AMES SALMONELLA TYPHIMURIUM, Strain/Indicator: TA97, Metabolic Activation: HAMSTER, LIVER, S-9, AROCLOR 1254 (10 OR 30%), Method: VAPOR CHAMBER): inactive; negative
mutagenic call (Test System: AMES SALMONELLA TYPHIMURIUM, Strain/Indicator: TA97, Metabolic Activation: NONE, Method: VAPOR CHAMBER): inactive; negative
mutagenic call (Test System: AMES SALMONELLA TYPHIMURIUM, Strain/Indicator: TA97, Metabolic Activation: RAT, LIVER, S-9, AROCLOR 1254 (5, 10 OR 30%), Method: VAPOR CHAMBER): inactive; negative
mutagenic call (Test System: AMES SALMONELLA TYPHIMURIUM, Strain/Indicator: TA98, Metabolic Activation: HAMSTER, LIVER, S-9, AROCLOR 1254 (10 OR 30%), Method: VAPOR CHAMBER): inactive; negative
mutagenic call [1]: inactive; negative
mutagenic call [2]: inactive; negative
mutagenic call (Test System: AMES SALMONELLA TYPHIMURIUM, Strain/Indicator: TA98, Metabolic Activation: NONE, Method: VAPOR CHAMBER): inactive; negative
mutagenic call (Test System: AMES SALMONELLA TYPHIMURIUM, Strain/Indicator: TA98, Metabolic Activation: RAT, LIVER, S-9, AROCLOR 1254 (10 OR 30%), Method: VAPOR CHAMBER): inactive; negative
mutagenic call [3]: inactive; negative
mutagenic call (Test System: AMES SALMONELLA TYPHIMURIUM, Strain/Indicator: TA98, Metabolic Activation: RAT, LIVER, S-9, AROCLOR 1254, Method: PREINCUBATION): inactive; negative
mutagenic call (Test System: AMES SALMONELLA TYPHIMURIUM, Strain/Indicator: TA100, Metabolic Activation: HAMSTER, LIVER, S-9, AROCLOR 1254 (5, 10 OR 30%), Method: VAPOR CHAMBER): inactive; negative
mutagenic call [4]: inactive; negative
mutagenic call [5]: inactive; negative
mutagenic call (Test System: AMES SALMONELLA TYPHIMURIUM, Strain/Indicator: TA100, Metabolic Activation: NONE, Method: VAPOR CHAMBER): inactive; negative
mutagenic call (Test System: AMES SALMONELLA TYPHIMURIUM, Strain/Indicator: TA100, Metabolic Activation: RAT, LIVER, S-9, AROCLOR 1254 (5, 10 OR 30%), Method: VAPOR CHAMBER): inactive; negative
mutagenic call [6]: inactive; negative
mutagenic call (Test System: AMES SALMONELLA TYPHIMURIUM, Strain/Indicator: TA100, Metabolic Activation: RAT, LIVER, S-9, AROCLOR 1254, Method: PREINCUBATION): inactive; negative
mutagenic call (Test System: AMES SALMONELLA TYPHIMURIUM, Strain/Indicator: TA102, Metabolic Activation: NONE, Method: PREINCUBATION): inactive; negative
mutagenic call (Test System: AMES SALMONELLA TYPHIMURIUM, Strain/Indicator: TA102, Metabolic Activation: RAT, LIVER, S-9, AROCLOR 1254, Method: PREINCUBATION): inactive; negative
mutagenic call (Test System: AMES SALMONELLA TYPHIMURIUM, Strain/Indicator: TA1535, Metabolic Activation: HAMSTER, LIVER, S-9, AROCLOR 1254 (10 OR 30%), Method: VAPOR CHAMBER): inactive; negative
mutagenic call (Test System: AMES SALMONELLA TYPHIMURIUM, Strain/Indicator: TA1535, Metabolic Activation: NONE, Method: VAPOR CHAMBER): inactive; negative
mutagenic call (Test System: AMES SALMONELLA TYPHIMURIUM, Strain/Indicator: TA1535, Metabolic Activation: RAT, LIVER, S-9, AROCLOR 1254 (10 OR 30%), Method: VAPOR CHAMBER): inactive; negative

O=[N+]([O-])c1cc2[nH]c3ccc4ccccc4c3c2c2cccc(O)c12
mutagenic call [7]: active; positive
mutagenic call (Test System: AMES SALMONELLA TYPHIMURIUM, Strain/Indicator: TA98, Metabolic Activation: RAT, LIVER, S-9, 3-METHYLCHOLANTHRENE, Method: STANDARD PLATE): active; positive
mutagenic call (Test System: AMES SALMONELLA TYPHIMURIUM, Strain/Indicator: TA100, Metabolic Activation: NONE, Method: STANDARD PLATE): active; positive
mutagenic call (Test System: AMES SALMONELLA TYPHIMURIUM, Strain/Indicator: TA100, Metabolic Activation: RAT, LIVER, S-9, 3-METHYLCHOLANTHRENE, Method: STANDARD PLATE): active; positive

CCc1cc(C(N)=S)ccn1
mutagenic call (End Point: IN VITRO CHROMOSOMAL ABERRATIONS, Test System: CHO CELLS, Metabolic Activation: NONE): inactive; negative; significant increase at 7 mm attributed to precipitation
mutagenic call (Test System: AMES SALMONELLA TYPHIMURIUM, Strain/Indicator: TA97, Metabolic Activation: HAMSTER, LIVER, S-9, AROCLOR 1254 (10%), Method: PREINCUBATION): inactive; negative
mutagenic call (Test System: AMES SALMONELLA TYPHIMURIUM, Strain/Indicator: TA97, Metabolic Activation: HAMSTER, LIVER, S-9, AROCLOR 1254 (30%), Method: PREINCUBATION): inactive; negative
mutagenic call (Test System: AMES SALMONELLA TYPHIMURIUM, Strain/Indicator: TA97, Metabolic Activation: NONE, Method: PREINCUBATION): inactive; negative
mutagenic call (Test System: AMES SALMONELLA TYPHIMURIUM, Strain/Indicator: TA97, Metabolic Activation: RAT, LIVER, S-9, AROCLOR 1254 (10%), Method: PREINCUBATION): inactive; negative
mutagenic call (Test System: AMES SALMONELLA TYPHIMURIUM, Strain/Indicator: TA97, Metabolic Activation: RAT, LIVER, S-9, AROCLOR 1254 (30%), Method: PREINCUBATION): inactive; negative
mutagenic call (Test System: AMES SALMONELLA TYPHIMURIUM, Strain/Indicator: TA98, Metabolic Activation: HAMSTER, LIVER, S-9, AROCLOR 1254 (10%), Method: PREINCUBATION): inactive; negative
mutagenic call [1]: inactive; negative
mutagenic call [2]: inactive; negative
mutagenic call (Test System: AMES SALMONELLA TYPHIMURIUM, Strain/Indicator: TA98, Metabolic Activation: RAT, LIVER, S-9, AROCLOR 1254 (10%), Method: PREINCUBATION): inactive; negative
mutagenic call [3]: inactive; negative
mutagenic call (Test System: AMES SALMONELLA TYPHIMURIUM, Strain/Indicator: TA100, Metabolic Activation: HAMSTER, LIVER, S-9, AROCLOR 1254 (10%), Method: PREINCUBATION): inactive; negative
mutagenic call [4]: inactive; negative
mutagenic call [5]: inactive; negative
mutagenic call (Test System: AMES SALMONELLA TYPHIMURIUM, Strain/Indicator: TA100, Metabolic Activation: RAT, LIVER, S-9, AROCLOR 1254 (10%), Method: PREINCUBATION): inactive; negative
mutagenic call [6]: inactive; negative
mutagenic call (Test System: AMES SALMONELLA TYPHIMURIUM, Strain/Indicator: TA1535, Metabolic Activation: HAMSTER, LIVER, S-9, AROCLOR 1254 (10%), Method: PREINCUBATION): inactive; negative
mutagenic call (Test System: AMES SALMONELLA TYPHIMURIUM, Strain/Indicator: TA1535, Metabolic Activation: HAMSTER, LIVER, S-9, AROCLOR 1254 (30%), Method: PREINCUBATION): inactive; negative
mutagenic call (Test System: AMES SALMONELLA TYPHIMURIUM, Strain/Indicator: TA1535, Metabolic Activation: NONE, Method: PREINCUBATION): inactive; negative
mutagenic call (Test System: AMES SALMONELLA TYPHIMURIUM, Strain/Indicator: TA1535, Metabolic Activation: RAT, LIVER, S-9, AROCLOR 1254 (10%), Method: PREINCUBATION): inactive; negative
mutagenic call (Test System: AMES SALMONELLA TYPHIMURIUM, Strain/Indicator: TA1535, Metabolic Activation: RAT, LIVER, S-9, AROCLOR 1254 (30%), Method: PREINCUBATION): inactive; negative

O=[N+]([O-])c1ccc2c(O)cc3cccc4ccc1c2c43
mutagenic call (Test System: AMES SALMONELLA TYPHIMURIUM, Strain/Indicator: TA98(1,8-DNP6), Metabolic Activation: NONE, Method: STANDARD PLATE): active; positive
mutagenic call (Test System: AMES SALMONELLA TYPHIMURIUM, Strain/Indicator: TA98(1,8-DNP6), Metabolic Activation: RAT, LIVER, S-9, AROCLOR 1254, Method: STANDARD PLATE): active; positive
mutagenic call [7]: active; positive
mutagenic call (Test System: AMES SALMONELLA TYPHIMURIUM, Strain/Indicator: TA98, Metabolic Activation: RAT, LIVER, S-9, AROCLOR 1254, Method: STANDARD PLATE): active; positive
mutagenic call (Test System: AMES SALMONELLA TYPHIMURIUM, Strain/Indicator: YG1024, Metabolic Activation: NONE, Method: STANDARD PLATE): active; positive
mutagenic call (Test System: AMES SALMONELLA TYPHIMURIUM, Strain/Indicator: YG1024, Metabolic Activation: RAT, LIVER, S-9, AROCLOR 1254, Method: STANDARD PLATE): active; positive
